{
  "source": "a melting point compilation (Tetko et al.; mined from patent text by program, amines drawn as free bases though some values may be those of a salt)",
  "data": [
    {"units": {"melting point": "°C"}, "values": [
      {"molecule": "O=C(N[C@H]1CC[C@H](CCN2CCN(c3nccc4c3OCC4)CC2)CC1)c1ccc(C(F)(F)F)cc1", "melting point": 242},
      {"molecule": "O=Cc1cc(-c2ccccc2)no1", "melting point": "67 to 69"},
      {"molecule": "COC(=O)[C@@H]1Cc2cc(Cl)c(Cl)cc2[C@@H](NC(N)=O)C1", "note": "(relative stereo)", "melting point": "227 to 229"},
      {"molecule": "O=C(COc1ccc(CCC(=O)C(F)(F)F)cc1)NC(c1ccc(Cl)cc1)c1ccc(Cl)cc1", "melting point": "145 to 146"},
      {"molecule": "CN1CCN(C2CC3C4CCC5CC6OC6CC5(C)C4CCC3(C)C2O)CC1", "note": "(configuration not stated)", "melting point": "149 to 153"},
      {"molecule": "CCOC(=O)CC(=O)c1cc(F)c(Cl)cc1Cl", "melting point": "44 to 45"},
      {"molecule": "CCN(CC)c1ccc(N(CC)CC)c(N2CCNCC2)n1", "melting point": 120},
      {"molecule": "CCOC(=O)COc1cc(O)c2c(c1)NC1(CCCCC1)CC2=O", "melting point": "134 to 135"},
      {"molecule": "CCSCC12CCC(=O)C=C1CCC1C3CC(CC)C(=O)C3(C)CCC12", "note": "(configuration not stated)", "melting point": 73},
      {"molecule": "Cc1nc2ccc(Cl)cc2c(-c2ccc(F)cc2)c1CO", "melting point": "173 to 175"},
      {"molecule": "CS(=O)(=O)Nc1cccc(N=C2NCCN2)c1", "melting point": "229 to 230"},
      {"molecule": "CCOC(=O)C1=C(C)NC(C)=C(C(=O)OCC)C1c1cccc(F)c1", "melting point": "149 to 150"},
      {"molecule": "CCN(c1nc2ccccc2[nH]1)C1CCN(CCc2ccccc2)CC1", "melting point": 205},
      {"molecule": "O=C1C2C3C=CC(C3)C2C(=O)N1OS(=O)(=O)C(F)(F)F", "note": "(configuration not stated)", "melting point": "89 to 90"},
      {"molecule": "Cc1sc(-c2ccccc2)nc1COc1ccc(COc2ccccc2CC(=O)O)cc1", "melting point": "122 to 123"},
      {"molecule": "COc1nc2ccc(Br)cc2cc1C(c1ccccc1)n1ccnc1", "note": "(configuration not stated)", "melting point": "161 to 162"},
      {"molecule": "C=C(Cl)c1c(C(F)(F)F)nc(C)[nH]c1=O", "melting point": "164 to 166"},
      {"molecule": "COc1cc(N)c(Cl)cc1C(=O)NCC1CCN(CCCCCC(=O)c2csc3ccccc23)CC1", "melting point": "130 to 132"},
      {"molecule": "Cc1ccc(CN(CCCC(N)=O)Cc2ccc(C)cc2)cc1", "melting point": "85 to 86"},
      {"molecule": "CCc1cc(N)ccc1N1C(=O)c2ccc(Cl)cc2C1=O", "melting point": "118 to 120"},
      {"molecule": "O=C(O)Cc1cc(C(=O)c2ccc(Cl)cc2)ccc1O", "melting point": 250},
      {"molecule": "CCCn1c(COC)nc2c(N)nc3ccc(OCC4CCCN(C)C4)cc3c21", "note": "(configuration not stated)", "melting point": "194 to 196"},
      {"molecule": "CCCOc1ccc(SCCSc2ccc(OCCC)cc2)cc1", "melting point": "111 to 112"},
      {"molecule": "CCOC(=O)C(=NO)c1cccc(Br)c1", "melting point": "113 to 114"},
      {"molecule": "Ic1cc(I)cc(Cc2cc(I)cc(I)c2)c1", "melting point": "104 to 107"},
      {"molecule": "COc1cc2c(cc1OCc1ccccc1)CCCNC2=O", "melting point": "192 to 193"},
      {"molecule": "CCOC(=O)C1=C(COCc2nnn(CCN3CCN(C(=O)NC)CC3)n2)NC(C)=C(C(=O)OC)C1c1cccc(Cl)c1Cl", "note": "(configuration not stated)", "melting point": "112 to 114"},
      {"molecule": "Cn1c(C(=O)c2ccc(F)cc2)cc2cc(Br)ccc21", "melting point": "162 to 164"},
      {"molecule": "COc1ccc(Cn2c(=O)n([C@H]3CC[C@H](O)CC3)c3ncc(C(F)(F)F)cc32)cc1OC", "melting point": "128 to 130"},
      {"molecule": "O=C(O)c1cccc(Cn2ccn(C3CCc4ccccc4C3)c2=S)c1", "note": "(configuration not stated)", "melting point": "252 to 254"},
      {"molecule": "NC(=O)C1(CC23CC4CC(CC(C4)C2)C3)C=C(O)C=CC1Cl", "note": "(configuration not stated)", "melting point": "263 to 264"},
      {"molecule": "CCCCN(Cc1ccc(-c2ccccc2S(=O)(=O)NC(C)(C)C)cc1)C(=O)Cl", "melting point": "128 to 129"},
      {"molecule": "Cc1ccc(-c2c(NS(=O)(=O)c3ccc(C(C)(C)C)cc3)nc(S(C)(=O)=O)nc2OCCOCc2ccccc2)cc1", "melting point": "129 to 130"},
      {"molecule": "O=C(O)CCCCCc1nc2ccccc2n1-c1ccccc1", "melting point": "132 to 133"},
      {"molecule": "COc1cc(COc2nn(-c3ccccc3)cc2CC#N)ccc1OCc1nc(-c2ccccc2)oc1C", "melting point": "137 to 138"},
      {"molecule": "Cc1ccc2[nH]c(CO)cc2c1", "melting point": "94 to 95"},
      {"molecule": "Nc1cc(I)ccc1Nc1cccc(-n2cccn2)c1", "melting point": "134 to 135"},
      {"molecule": "CC(=O)Nc1nc(C)n2c1CN=C(c1ccccc1F)c1cc(Cl)ccc1-2", "melting point": "175 to 178"},
      {"molecule": "O=C(NC(=O)c1c(F)cccc1F)Nc1ccc2c(c1)SC(c1ccc(Cl)cc1Cl)O2", "note": "(configuration not stated)", "melting point": "206 to 208"},
      {"molecule": "N#Cc1cn(CC(O)CCl)nc1[N+](=O)[O-]", "note": "(configuration not stated)", "melting point": "78 to 80"},
      {"molecule": "COC(=O)c1nc2cccc(OC)c2c(O)c1C(=O)OC", "melting point": "184 to 186"},
      {"molecule": "COc1ccc(Br)c2c1C1C(=O)NC(=O)C1CC2", "note": "(configuration not stated)", "melting point": "191 to 193"},
      {"molecule": "CCC(=O)NC(=S)NCC1CC2c3cccc4[nH]cc(c34)CC2N(C)C1", "note": "(configuration not stated)", "melting point": "225 to 226"},
      {"molecule": "N[C@@H](CC(=O)N1CCn2c(nnc2C(F)(F)F)C1)Cc1cc(F)c(F)cc1F", "melting point": 118},
      {"molecule": "O=C1c2ccccc2C(=O)N1CC(O)Cn1ccnc1[N+](=O)[O-]", "note": "(configuration not stated)", "melting point": "213 to 214"},
      {"molecule": "Cn1cnc2nc(C#Cc3ccccc3)nn2c1=S", "melting point": "290 to 295"},
      {"molecule": "BrCc1ccc2ncoc2c1", "melting point": "52 to 56"},
      {"molecule": "O=C(Nc1nnn[nH]1)c1c[nH]c(=S)n1C1CCc2c(F)cc(F)cc2C1", "note": "(configuration not stated)", "melting point": "228 to 230"},
      {"molecule": "O=C(Cc1noc2ccccc12)N[C@H]1CC[C@H](CCN2CCC(c3cccc4c3CCO4)CC2)CC1", "melting point": 214},
      {"molecule": "CCc1nc2c([nH]1)c(=S)n(CC)c(=O)n2CC(C)CC", "note": "(configuration not stated)", "melting point": "115 to 117"},
      {"molecule": "N#CCCNC(=O)c1cccc(-c2cccc3oc(Cc4cccc(C(F)(F)F)c4)nc23)c1", "melting point": "117 to 118"},
      {"molecule": "CCN(Cc1ccccc1Oc1ccccc1)c1ccc(C(=O)O)nn1", "melting point": "70 to 75"},
      {"molecule": "CN=C(Nc1cc(Cl)cc(Cl)c1)N1CCN(c2ccc(OC(C)=O)cc2OC)CC1", "melting point": 144},
      {"molecule": "Nc1ccc(C2Nc3ccccc3C(=O)N2c2ccccc2)cc1", "note": "(configuration not stated)", "melting point": 191},
      {"molecule": "CCc1ccc(-c2ccc(C(=O)Nc3ccc4cc(CN5CCCC5)cnc4c3C)cc2)cc1", "melting point": "189 to 190"},
      {"molecule": "O=c1nc(-c2c[nH]c3ccccc23)sc2ccccc12", "melting point": "276 to 277"},
      {"molecule": "CC(C)(C)c1cc(C=Cc2ccccc2NC(=O)NCc2ccccn2)cc(C(C)(C)C)c1O", "melting point": "207 to 210"},
      {"molecule": "COc1ccc2nc3cc(OC)c(=O)c(Br)c-3sc2c1", "melting point": "260 to 261"},
      {"molecule": "COC(=O)C(=C1NCCCO1)[N+](=O)[O-]", "melting point": "132 to 133"},
      {"molecule": "CC(=O)OC1=CC2=CCC3C(C(F)CC4(C)C(=O)CCC34)C2CC1", "note": "(configuration not stated)", "melting point": "175 to 177"},
      {"molecule": "CC1Oc2cc(F)c(N)cc2NC1=O", "note": "(configuration not stated)", "melting point": "208 to 211"},
      {"molecule": "O=C(O)CC1(C(=O)O)CCSc2ccccc21", "note": "(configuration not stated)", "melting point": "168 to 170"},
      {"molecule": "COc1cc2c(cc1OC)C[C@@H](N1CCN(c3ccccc3OC)CC1)[C@H](O)C2", "note": "(relative stereo)", "melting point": "172 to 174"},
      {"molecule": "Cn1cc(C#N)c(Br)c1Br", "melting point": "138 to 139"},
      {"molecule": "COCCNc1nccc(-c2ccnc(Nc3cccc(Cl)c3)n2)c1Cl", "melting point": 172},
      {"molecule": "CN(C)c1ccc2nc(N)c(C#N)c(NCc3cccs3)c2c1", "melting point": 211},
      {"molecule": "COc1cc2c(-c3ccnc(NN)c3)c(CO)c(CO)cc2cc1OC1CCCC1", "melting point": "127 to 130"},
      {"molecule": "COc1ccc(C(=O)Nc2cc(-c3c(-c4ccc(F)c(C)c4)nc4cccnn34)ccn2)cc1", "melting point": "222 to 223"},
      {"molecule": "CC(C)OP(=O)(/C=C/CCn1cnc2c(N)ncnc21)OC(C)C", "melting point": "121 to 122"},
      {"molecule": "Cc1nc(CN(C)C(=O)N[C@H](C(=O)N[C@@H](Cc2ccccc2)[C@@H](O)C[C@H](Cc2ccccc2)NC(=O)OCc2cccnc2)C(C)C)cs1", "melting point": "66 to 69"},
      {"molecule": "CCOC(=O)c1ccc(COc2cccc(O)c2C=O)cc1", "melting point": "105 to 107"},
      {"molecule": "COc1cc(C)c(NS(=O)(=O)N(C)C)cc1C(=O)NCC1CCCO1", "note": "(configuration not stated)", "melting point": "130 to 131"}
    ]}
  ]
}
